Measured values as given in publication PMC9149975, “The diaryl-imidazopyridazine anti-plasmodial compound, MMV652103, exhibits anti-breast cancer activity” (EXCLI Journal, 2022).
Like-named read-outs stand apart in the source and are kept apart here.

Legend:
MCF7 cells = experiment: Scratch motility assay, MCF7; format: cell-based, human; conditions: IC50 and 2 x IC50; 3, 6, 9 h
Experimental: Cells were grown to 100 % confluence in 12-well tissue culture plates and the following day a sterile 2 µl pipette tip was used to make a vertical scratch in the cell monolayer of each well and the cells treated with mitomycin C (M4287; Sigma Aldrich) at a final concentration of 10 μg/ml to inhibit proliferation. Cells were subsequently treated with MMV652103 or vehicle and imaged at 0, 3, 6 and 9 h post wound formation and ImageJ v1.50i software was used to calculate the area of the scratch (Schneider et al., 2012[73]). The total areas migrated was determined by subtracting the area for a specific time point from the area measured at 0 h.

PI4KB = molecular target: T1, PI4KB (Homo sapiens, UniProt Q9UBF8); experiment: ADP-Glo lipid kinase assay, PI4KB; format: biochemical
T1 construct: purchased Carna Biosciences Inc; Invitrogen Corporation
T1 sequence (Q9UBF8 whole entry): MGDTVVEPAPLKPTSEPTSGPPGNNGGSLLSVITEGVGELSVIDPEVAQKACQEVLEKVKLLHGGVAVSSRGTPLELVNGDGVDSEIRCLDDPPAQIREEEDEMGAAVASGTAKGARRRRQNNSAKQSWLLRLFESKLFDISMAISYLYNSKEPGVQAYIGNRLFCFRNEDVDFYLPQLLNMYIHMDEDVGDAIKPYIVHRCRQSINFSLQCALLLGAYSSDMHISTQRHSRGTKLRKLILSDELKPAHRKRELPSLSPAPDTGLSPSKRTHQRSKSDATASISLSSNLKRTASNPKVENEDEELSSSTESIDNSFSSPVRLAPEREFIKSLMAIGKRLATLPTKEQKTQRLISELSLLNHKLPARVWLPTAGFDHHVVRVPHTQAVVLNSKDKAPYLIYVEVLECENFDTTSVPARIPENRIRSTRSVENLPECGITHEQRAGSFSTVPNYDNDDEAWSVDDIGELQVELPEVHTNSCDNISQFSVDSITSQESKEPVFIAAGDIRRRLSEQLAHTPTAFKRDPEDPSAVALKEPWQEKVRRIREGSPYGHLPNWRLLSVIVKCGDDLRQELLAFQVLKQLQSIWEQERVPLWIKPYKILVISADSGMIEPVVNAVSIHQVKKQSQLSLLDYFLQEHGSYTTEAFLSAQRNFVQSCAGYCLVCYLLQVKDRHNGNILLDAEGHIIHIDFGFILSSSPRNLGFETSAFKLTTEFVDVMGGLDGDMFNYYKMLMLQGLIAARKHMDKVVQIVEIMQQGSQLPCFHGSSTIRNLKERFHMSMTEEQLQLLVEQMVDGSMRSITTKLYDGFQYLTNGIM
Experimental: A non-radiometric kinase assay (ADP-Glo™ Assay, Promega, Madison, Wi, USA) was used for measuring the kinase activity of the 2 lipid kinases, phosphatidylinositol 4-kinase beta (encoded by the PI4KB gene) and phosphatidylinositol-4-Phosphate 3-Kinase Catalytic Subunit Type 2 Gamma (encoded by the PIK3C2G gene). All kinase assays were performed in 96-well half-area microtiter plates from Greiner Bio-One (Frickenhausen, Germany) in 25 µl reaction volumes. […] In addition, the assay for PI4KB contained 3 mM MnCl2 and the assay for PIK3C2G contained 3 mM MgCl2. Kinases from external vendors (Carna Biosciences Inc.; Invitrogen Corporation; Millipore Corporation) were expressed, purified and quality-controlled by virtue of the vendors readings. The reaction cocktails were incubated at 30 °C for 60 min. The reaction was stopped with 25 µl ADP-Glo reagent per well. Plates were incubated for 40 min at RT, followed by the addition of 50 µl kinase detection reagent per well and incubation for 60 min at RT. Signal was determined with a microplate luminescence reader (Victor, Perkin Elmer). […]
For each kinase, the median value of the counts per second (cps) of three wells with complete reaction cocktails, but without kinase, was defined as "low control" (n=3). […] The residual activity (in %) for each well of each row of a particular plate was calculated by using the following formula: […]

[1] = tested on: T47D (ER+) breast cancer cells; experiment: MTT cytotoxicity assay, T47D; format: cell-based, human; conditions: for IC50: Homo sapiens, T47D
Text: Human estrogen-receptor positive (ER+) breast adenocarcinoma cell lines, MCF7 and T47D, were maintained in Roswell Park Memorial Institute-1640 medium (Sigma Aldrich, Missouri, USA) and the human epidermal growth factor receptor 2 positive (HER2+) BT474, and triple negative (TNBC) MDA-MB-231 and MDA-MB-468 cells were maintained in Dulbecco's Modified Eagle's Medium (DMEM) (Sigma Aldrich, Missouri, USA). FG0 human skin fibroblasts (provided by Associate Professor Denver Hendricks, University of Cape Town) were maintained in DMEM while the normal breast epithelial cell line MCF12A was maintained in DMEM:nutrient mixture F-12 (DMEM/F12; 1:1; Sigma Aldrich, Missouri, USA), supplemented with 20 ng/ml epidermal growth factor, 100 ng/ml cholera toxin, 500 ng/ml hydrocortisone and 10 µg/ml insulin. All media were supplemented with 10 % fetal bovine serum, 100 U/ml penicillin and 100 µg/ml streptomycin. Cells were maintained at 37 °C in a 5 % CO2 and 95 % air-humidified incubator. Media was replaced every 2-3 days and cells were routinely tested for mycoplasma infection.
Cells (3.5×10^3-6×10^3 / well) were seeded in 96-well plates and treated at a 60-70 % confluence with a range of concentrations (0-10 μM) of test compounds or vehicle for 48 h. Cell viability was measured using the 3-(4,5-dimethylthiazol-2-yl)-2,5-diphenyl-trazolium bromide (MTT) assay (11465007001; Sigma Aldrich) according to the manufacturer's instructions. Mean cell viability was calculated as a percentage of the mean vehicle control. A minimum of three independent experiments in quadruplicate were performed from which the IC50 was determined from sigmoidal plots using GraphPad Prism version 6.0 (GraphPad Software, California, USA). The selectivity index (SI) was determined by dividing the IC50 of a non-malignant cell line by the IC50 of a cancer cell line.

MCF7 tumors = experiment: Chick embryo CAM xenograft: tumor weight and metastasis; format: in vivo; conditions: every 48 h E10-E16, weighed E18
Experimental: All studies and procedures were conducted with prior approval of the Animal Ethics Committee of the University of Cape Town (FHS AEC REF NO:016/025) in accordance with the South African National Standard (SANS 10386:008) for the Care and Use of Animals for Scientific Purposes (SABS, 2015[71]), and guidelines from the Department of Health (2015[21]). Fertilized White Leghorn eggs were incubated at 37.5 °C with 50 % relative humidity for 9 days. At stage E9, the chorioallantoic membrane (CAM) was dropped by drilling a small hole through the eggshell into the air sac and a 1 cm^2 window was cut in the eggshell above the CAM. Cultured MCF7 cells were detached with trypsin, washed with complete medium and suspended in PBS. An inoculum of MCF7 cells was grafted onto the CAM of each E9 egg (21 eggs were used for each condition) and at E10, tumors were detectable. MCF7 tumors were treated every 48 h (E10, E12, E14, E16) by dropping 100 μl of vehicle (0.25 % DMSO in PBS), a reference compound (Paclitaxel), or MMV652103, onto the tumour. At E18 the upper portion of the CAM was removed, transferred to PBS and the tumors cut away from normal CAM tissue and weighed. A one-way ANOVA analysis with post-tests was done. In parallel, a 1 cm^2 portion of the lower CAM was collected to evaluate the number of metastatic cells. The relative amount of metastasis was calculated as follows: Tumor cells were grafted onto the upper chorioallantoic membrane (CAM) and during metastasis the cells invade the epithelium and basement membrane of the upper CAM and move through connective tissue into the vasculature into the lower CAM. The cells in the lower CAM are then harvested and genomic DNA is extracted and analyzed by qPCR with specific primers for Alu sequences which are only found in higher primates i.e. it allows for the distinction between human tumor cells and the host chick cells. Statistical analysis was directly performed on data from the Bio-Rad CFX Manager 3.1 software.

`CS(=O)(=O)c1ccc(-c2cnc3ccc(-c4cccc(S(C)(=O)=O)c4)nn23)cc1` [MMV652103] was tested, and the MCF7 cell migration (MCF7 cells) was “significant reduction”, the remaining activity at 10 µM (PI4KB; 10 µM compound) was 23% and the IC50 (PI4KB; ADP-Glo) was 1.7 µM. For the same compound, the IC50 ([1]; Fig 2C summary, MTT 48 h, read-out: IC50 ± SEM T47D) was 2.9 ± 1.1 µM, the IC50 ([1]; MTT, 48 h, read-out: IC50 T47D) was 2.9 µM and the “SI FG0 (T47D)” value ([1]; IC50 FG0 / IC50 T47D) was over 2. For the same compound, the tumor weight reduction (MCF7 tumors; 4.4 μM) was 34.89% and the tumor weight reduction (MCF7 tumors; 22 μM) was 41.71%.
